From ChEMBL document CHEMBL5233228, “The cell division protein FtsZ as a cellular target to hit cystic fibrosis pathogens” (Eur J Med Chem, 2020)
Converted amounts (≈) assume the structure as drawn.

Tests used:
Staphylococcus aureus [1] = assay: Antibacterial activity against Meticillin-Sensitive Staphylococcus aureus assessed as bacterial growth inhibtion incubated for 4 to 6 hrs by broth microdilution method; type: functional; details: time 4-6 hrs
[2] = biological target: T1, Cell division protein FtsZ (Staphylococcus aureus, UniProt P0A031); assay: Inhibition of Staphylococcus aureus recombinant FTsZ preincubated for 10 mins followed by compound addition measured after 30 mins by Cytophos phosphate assay
T1 sequence (P0A031 whole entry): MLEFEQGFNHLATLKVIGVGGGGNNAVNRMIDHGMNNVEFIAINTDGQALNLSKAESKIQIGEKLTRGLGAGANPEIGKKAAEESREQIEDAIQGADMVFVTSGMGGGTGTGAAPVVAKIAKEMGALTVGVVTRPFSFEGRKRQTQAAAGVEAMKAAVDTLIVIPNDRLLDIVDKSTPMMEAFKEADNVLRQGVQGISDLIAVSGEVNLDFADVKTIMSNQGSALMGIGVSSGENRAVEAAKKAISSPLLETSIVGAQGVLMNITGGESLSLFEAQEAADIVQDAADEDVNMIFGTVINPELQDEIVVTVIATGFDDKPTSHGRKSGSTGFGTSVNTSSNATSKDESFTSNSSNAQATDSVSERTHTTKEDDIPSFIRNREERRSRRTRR

[3] = biological target: T2, Cell division protein FtsZ (Escherichia coli K-12, UniProt P0A9A6); assay: Inhibition of Escherichia coli recombinant FTsZ incubated for 10 mins in presence of GTP by spectrofluorimeter analysis
T2 sequence (P0A9A6 whole entry): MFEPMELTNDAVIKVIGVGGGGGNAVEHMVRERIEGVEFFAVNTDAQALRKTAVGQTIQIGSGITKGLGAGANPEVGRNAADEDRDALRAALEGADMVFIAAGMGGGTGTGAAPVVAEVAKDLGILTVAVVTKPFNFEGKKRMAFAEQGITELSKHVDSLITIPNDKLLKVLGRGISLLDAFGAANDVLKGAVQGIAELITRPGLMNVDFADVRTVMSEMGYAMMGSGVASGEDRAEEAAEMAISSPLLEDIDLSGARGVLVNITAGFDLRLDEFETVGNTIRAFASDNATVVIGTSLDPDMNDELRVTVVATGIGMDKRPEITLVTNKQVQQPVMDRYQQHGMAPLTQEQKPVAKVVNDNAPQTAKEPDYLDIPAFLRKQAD

[4] = Inhibition of FTsZ (unknown origin)
Staphylococcus aureus [5] = assay: Antibacterial activity against Meticillin-Sensitive Staphylococcus aureus assessed as bacterial growth inhibtion; type: functional
Staphylococcus aureus [6] = assay: Antibacterial activity against Meticillin-Resistant Staphylococcus aureus assessed as bacterial growth inhibtion; type: functional
Staphylococcus aureus [7] = assay: Antibacterial activity against Meticillin-Resistant Staphylococcus aureus assessed as bacterial growth inhibtion incubated for 18 hrs by broth microdilution method; type: functional
Staphylococcus aureus [8] = assay: Antibacterial activity against Meticillin-Sensitive Staphylococcus aureus assessed as bacterial growth inhibtion incubated for 18 hrs by broth microdilution method; type: functional
[9] = biological target: T3, Cell division protein FtsZ (Staphylococcus aureus) (UniProt P0A031); assay: Inhibition of Staphylococcus aureus recombinant FTsZ at 50 uM by GTPase activity assay relative to control
T3 sequence (whole entry): T1 sequence (P0A031 whole entry)

Staphylococcus aureus [10] = assay: Antibacterial activity against Staphylococcus aureus assessed as bacterial growth inhibition; type: functional
Escherichia coli = assay: Antibacterial activity against Escherichia coli assessed as bacterial growth inhibition; type: functional
Macrococcus caseolyticus = assay: Antibacterial activity against Macrococcus caseolyticus assessed as bacterial growth inhibition; type: functional; details: Macrococcoides caseolyticum
Pseudomonas aeruginosa = assay: Antibacterial activity against Pseudomonas aeruginosa assessed as bacterial growth inhibition; type: functional
Staphylococcus aureus [11] = assay: Antibacterial activity against Meticillin-Resistant Staphylococcus aureus assessed as bacterial growth inhibtion incubated for 24 hrs by broth microdilution method; type: functional
Staphylococcus aureus [12] = assay: Antibacterial activity against Meticillin-Sensitive Staphylococcus aureus assessed as bacterial growth inhibtion incubated for 24 hrs by broth microdilution method; type: functional
Staphylococcus aureus [13] = assay: Antibacterial activity against Meticillin-Sensitive Staphylococcus aureus assessed as bacterial growth inhibtion incubated for 14 to 16 hrs; type: functional; details: time 14-16 hrs
Staphylococcus aureus [14] = assay: Antibacterial activity against Meticillin-Resistant Staphylococcus aureus assessed as bacterial growth inhibtion incubated for 14 to 16 hrs; type: functional; details: time 14-16 hrs
Staphylococcus aureus [15] = assay: Antibacterial activity against Meticillin-Resistant Staphylococcus aureus assessed as bacterial growth inhibtion by resazurin colorimetric assay; type: functional
Burkholderia cepacia = assay: Antibacterial activity against Burkholderia cepacia assessed as bacterial growth inhibition by checkerboard assay; type: functional
Staphylococcus aureus [16] = assay: Antibacterial activity against Meticillin-Sensitive Staphylococcus aureus assessed as bacterial growth inhibtion by resazurin colorimetric assay; type: functional

Q: With `Cc1nc(-c2cccs2)cc([C@H]2CN3CC[C@H]2C[C@@H]3CNC(=O)CCCC(=O)O)n1` as the molecule, how does the MIC (Staphylococcus aureus [1]) read?
A: The MIC was 897 µM (≈ 384 µg/mL).

Q: What about the IC50 [2] of the same molecule?
A: The IC50 was 317 µM.

Q: What does the source list for `CCC(CC)c1cc([C@H]2CN3CC[C@H]2C[C@@H]3CNCc2ccco2)nc(-c2ccncc2)n1`?
A: MIC (Staphylococcus aureus [1]): 26.9 µM (≈ 12 µg/mL); IC50 [2]: 55.7 µM

Q: With `C[n+]1cc2c3c(ccc2c2ccc4cc5c(cc4c21)OCO5)OCO3` [SANGUINARIUM] as the molecule, how does the IC50 [3] read?
A: The IC50 was 3 µM.

Q: What does the source list for `NC(=O)c1c(F)ccc(OCc2nc3cc(Cl)cnc3s2)c1F`?
A: IC50 [4]: 0.055 µg/mL (≈ 0.155 µM); MIC (Staphylococcus aureus [5]): 1 µg/mL (≈ 2.81 µM); MIC (Staphylococcus aureus [6]): 1 µg/mL (≈ 2.81 µM)

Q: With `COc1ccc2cc3[n+](cc2c1OCCCOc1ccc(Cl)cc1)CCc1cc2c(cc1-3)OCO2.[Br-]` as the molecule, how does the MIC (Staphylococcus aureus [7]) read?
A: Its MIC is 2 µg/mL.

Q: And the MIC (Staphylococcus aureus [8])?
A: The MIC was 2 µg/mL.

Q: Which results are given for `CCC(CC)c1cc([C@H]2CN3CC[C@H]2C[C@@H]3CNCc2ccc(CO)o2)nc(-c2ccncc2)n1`?
A: MIC (Staphylococcus aureus [1]): 50.5 µM (≈ 24 µg/mL); IC50 [2]: 77.2 µM

Q: Which results are given for `CCC(CC)c1cc(CCN2CCCN(Cc3ccc(C(F)(F)F)cc3)CC2)nc(-c2ccncc2)n1`?
A: MIC (Staphylococcus aureus [5]): 3 µg/mL (≈ 5.86 µM); inhibition [9]: 20%; MIC (Staphylococcus aureus [6]): 6 µg/mL (≈ 11.7 µM)

Q: What does the source list for `Cc1ccc(/C=C/c2nc(/C=C3\Sc4ccccc4N3C)c3ccccc3[n+]2C)cc1.[I-]`?
A: MIC (Staphylococcus aureus [7]): 2 µg/mL; MIC (Staphylococcus aureus [8]): 2 µg/mL

Q: Which MIC (Staphylococcus aureus [10]) does the source give for `Cc1n(Cc2ccc(Cl)c(Cl)c2)c2ccccc2[n+]1Cc1ccc(Cl)c(Cl)c1` here?
A: Its MIC is 5 µg/mL.

Q: And the MIC (Escherichia coli)?
A: Its MIC is 5 µg/mL.

Q: And the MIC (Macrococcus caseolyticus)?
A: Its MIC is 5 µg/mL.

Q: What about the MIC (Staphylococcus aureus [5]) of the same molecule?
A: The MIC was 5 µg/mL.

Q: What about the MIC (Pseudomonas aeruginosa) of the same molecule?
A: The MIC was 5 µg/mL.

Q: What does the source list for `CN(C)CNC(=O)c1c(F)ccc(OCc2nc3cc(Cl)ccc3s2)c1F`?
A: MIC (Staphylococcus aureus [11]): 0.5 µg/mL (≈ 1.21 µM); MIC (Staphylococcus aureus [12]): 0.5 µg/mL (≈ 1.21 µM)

Q: With `Cc1n(Cc2ccc(Cl)cc2)c2ccccc2[n+]1Cc1ccc(Cl)cc1` as the molecule, how does the MIC (Staphylococcus aureus [10]) read?
A: Its MIC is 5 µg/mL.

Q: And the MIC (Escherichia coli)?
A: The MIC was 5 µg/mL.

Q: And the MIC (Macrococcus caseolyticus)?
A: The MIC was 5 µg/mL.

Q: And the MIC (Staphylococcus aureus [5])?
A: Its MIC is 5 µg/mL.

Q: What about the MIC (Pseudomonas aeruginosa) of the same molecule?
A: The MIC was 5 µg/mL.

Q: With `COc1ccc2cc3[n+](cc2c1OC)CCc1cc2c(cc1-3)OCO2` [BERBERINE] as the molecule, how does the IC50 [2] read?
A: The IC50 was 10 µM.

Q: What does the source list for `Cc1ccc(/C=C/c2nc(/C=C3\Sc4ccccc4N3CCCN3CCC(C)CC3)c3ccccc3[n+]2C)cc1.[I-]`?
A: MIC (Staphylococcus aureus [7]): 2 µg/mL; MIC (Staphylococcus aureus [8]): 2 µg/mL

Q: With `Cc1n(Cc2ccccc2)c2ccccc2[n+]1Cc1ccc(Cl)c(Cl)c1` as the molecule, how does the MIC (Staphylococcus aureus [10]) read?
A: Its MIC is 5 µg/mL.

Q: What about the MIC (Escherichia coli) of the same molecule?
A: Its MIC is 5 µg/mL.

Q: What about the MIC (Macrococcus caseolyticus) of the same molecule?
A: The MIC was 5 µg/mL.

Q: What about the MIC (Staphylococcus aureus [5]) of the same molecule?
A: The MIC was 5 µg/mL.

Q: And the MIC (Pseudomonas aeruginosa)?
A: The MIC was 5 µg/mL.

Q: Which MIC (Staphylococcus aureus [13]) does the source give for `CCN(CC)CCNc1nc(/C=C/c2ccc(Cl)cc2)nc2cc3ccccc3cc12` here?
A: Its MIC is 5 µg/mL (≈ 11.6 µM).

Q: What about the MIC (Staphylococcus aureus [14]) of the same molecule?
A: The MIC was 10 µg/mL (≈ 23.2 µM).

Q: With `CCC(CC)c1cc([C@H]2CN3CC[C@H]2C[C@@H]3CN)nc(-c2ccncc2)n1` as the molecule, how does the MIC (Staphylococcus aureus [1]) read?
A: The MIC was 24.6 µM (≈ 8.99 µg/mL).

Q: What does the source list for `COC(=O)CSc1ccc2nsnc2c1[N+](=O)[O-]`?
A: MIC (Staphylococcus aureus [15]): 2 µg/mL (≈ 7.01 µM); MIC (Burkholderia cepacia): 8 µg/mL; MIC (Staphylococcus aureus [16]): 2 µg/mL (≈ 7.01 µM)
